{"source": "PubChem BioAssay AID1872", "about": "(NMMLSC, 2009)", "note": "pEC50, pKi: −log10 of the molar value. Active and inactive are the calls of the source. No rule for the calls is given here."}
{"molecular_target": "Regulator of G-protein signaling 4 (Homo sapiens) (UniProt P49798)", "sequence (P49798 whole entry, looked up)": "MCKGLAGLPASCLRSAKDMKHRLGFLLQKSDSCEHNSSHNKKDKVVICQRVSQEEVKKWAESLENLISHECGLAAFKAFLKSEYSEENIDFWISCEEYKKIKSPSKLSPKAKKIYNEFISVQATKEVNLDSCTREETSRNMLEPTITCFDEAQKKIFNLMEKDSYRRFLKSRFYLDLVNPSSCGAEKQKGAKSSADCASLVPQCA", "assay": "RGS4-Galphao interaction modulators, dose response, biochemical, bead-based flow cytometry, multiplex (AID 1872)", "conditions": "Bead-based flow cytometry RGS4-Galphao binding"}
{"smiles": "CCOC(=O)C1=C(C)NC(C)=C(C(=O)OCCNC(=O)c2cccnc2)C1c1cccc([N+](=O)[O-])c1", "note": "(configuration not stated)", "EC50": "> 30 µM (inactive)"}
{"smiles": "COc1ccc(Br)cc1/C=N/Nc1cccc(C(=O)O)c1", "EC50": "> 30 µM (inactive)"}
{"smiles": "O=c1[nH]c(=S)n(Cc2ccco2)c(O)c1C=NCc1cccs1", "EC50": "> 30 µM (inactive)"}
{"smiles": "CCOC(=O)N=Nc1c(O)n(C)c2ccccc12", "EC50": "> 30 µM (inactive)"}
{"smiles": "NS(=O)(=O)c1ccc(N/N=C/c2ccc(O)c(O)c2O)c([N+](=O)[O-])c1", "pEC50": 5.45}
{"smiles": "CN(C)[C@@H]1C(=O)C(C(=O)NCN2CCCC2)=C(O)[C@@]2(O)C(=O)C3=C(O)c4c(O)cccc4[C@@](C)(O)C3CC12", "note": "(some centres not stated)", "pEC50": 4.93}
{"smiles": "CCOC(=O)/C(C(=O)Nc1ccccc1Cl)=C1/NC(C)(C)Cc2ccccc21", "EC50": "inactive"}
{"smiles": "CC(C)Sc1nc2ccc(N3C(=O)C4CCCCC4C3=O)cc2s1", "note": "(configuration not stated)", "EC50": "> 30 µM (inactive)"}
{"smiles": "O=C1CCCC2=C1C(c1cccs1)n1ncnc1N2", "note": "(configuration not stated)", "EC50": "inactive"}
{"molecular_target": "Regulator of G-protein signaling 4 (Homo sapiens) (UniProt P49798)", "assay": "RGS4-Galphao interaction modulators, dose response, biochemical, bead-based flow cytometry, multiplex (AID 1872)", "conditions": "Bead-based flow cytometry RGS4-Galphao binding; measured here: Ki for RGS4-Galphao"}
{"smiles": "O=C1OCC2OC(O)C(O)C(O)C2OC(=O)c2cc(O)c(O)c(O)c2-c2c(O)c(O)c3oc(=O)c4c(c(O)c(O)c5oc(=O)c2c3c54)-c2c1cc(O)c(O)c2O", "note": "(configuration not stated)", "pKi": 5.69}
{"smiles": "O=C1C(Cl)=C(N2CCCCC2)C(=O)C(Cl)=C1c1cnc(N2CCCCC2)s1", "pKi": 5.81}
{"smiles": "CC1(C)OC(=O)C(=Cc2ccc(-c3ccc(S(N)(=O)=O)cc3)o2)C(=O)O1", "pKi": 5.08}
{"smiles": "CC(=O)N(O)CCCCCNC(=O)CCC(=O)N(O)CCCCCNC(=O)CCC(=O)N(O)CCCCCN", "pKi": 5.87}
{"smiles": "COC(=O)CCC(=O)Nc1sc(C)c(C)c1C(N)=O", "pKi": 5.19}
{"smiles": "Cc1cc(Cl)ccc1N=c1ssnc1Cl", "pKi": 5.34}
{"smiles": "O=C(Cc1csc(N2CCOCC2)n1)N/N=C/c1ccc(O)c(O)c1O", "pKi": 4.83}
{"smiles": "CN(C)c1ncc(C2=C(Cl)C(=O)C(N3CCCC3)=C(Cl)C2=O)s1", "pKi": 5.71}
{"smiles": "CN=c1scc(C)n1/N=C/c1ccc(O)c(O)c1O", "pKi": 4.92}
{"smiles": "COCCCNC(=O)c1ccc2c3c(onc13)-c1ccccc1C2=O", "pKi": 5.58}
{"smiles": "Nc1c(C(=O)NCC2CCCO2)sc2nc3c(c(-c4ccco4)c12)CC/C3=C\\c1ccco1", "note": "(configuration not stated)", "pKi": 5.56}
{"smiles": "CCN=c1scc(C)n1/N=C/c1ccc(O)c(O)c1O", "pKi": 4.67}
{"smiles": "COc1ccc(C2=CC(=O)C=CC2=O)cc1", "pKi": 4.71}
{"smiles": "CCN1/C(=C/C=C/C=C/c2sc3ccccc3[n+]2CC)Sc2ccccc21", "pKi": 5.54}
{"smiles": "CCN(CC)S(=O)(=O)c1cccc(C(=O)N/N=C/c2ccc(O)c(O)c2O)c1", "pKi": 5.33}
{"smiles": "NS(=O)(=O)c1ccc(N/N=C/c2ccc(O)c(O)c2O)c([N+](=O)[O-])c1", "pKi": 5.52}
{"smiles": "CCNc1ccc2noc3c2c1C(=O)c1ccccc1-3", "pKi": 4.65}
{"smiles": "CN(C)[C@@H]1C(=O)C(C(=O)NCN2CCCC2)=C(O)[C@@]2(O)C(=O)C3=C(O)c4c(O)cccc4[C@@](C)(O)C3CC12", "note": "(some centres not stated)", "pKi": 5.00}
{"smiles": "CCC(=O)NC(c1ccc(C)cc1)c1cc([N+](=O)[O-])c2cccnc2c1O", "note": "(configuration not stated)", "pKi": 5.00}
{"smiles": "CN1CCN(C2=C(Cl)C(=O)C(c3cnc(N4CCCCC4)s3)=C(Cl)C2=O)CC1", "pKi": 6.52}
{"smiles": "COc1ccc(OC)c(CCNC(=O)Cn2sc3nc(C)cc(C)c3c2=O)c1", "pKi": 5.25}
{"smiles": "O=C1CCC(=O)N(O)CCCCCNC(=O)CCC(=O)N(O)CCCCCNC(=O)CCC(=O)N(O)CCCCCN1", "pKi": 5.66}
{"smiles": "CCC(=O)NC1=C(Cl)C(=O)C(NC(=O)CC)=C(Cl)C1=O", "pKi": 5.34}
{"smiles": "O=C(O)C[C@@H]1C(=O)O[C@@H]2C(COC(=O)c3cc(O)c(O)c(O)c3)O[C@@H](OC(=O)c3cc(O)c(O)c(O)c3)[C@@H](OC(=O)c3cc(O)c(O)c4c3[C@H]1[C@H](O)C(=O)O4)[C@H]2OC(=O)c1cc(O)c(O)c(O)c1", "note": "(some centres not stated)", "pKi": 6.06}
{"smiles": "O=C(OCC1O[C@@H](OC(=O)c2cc(O)c(O)c(O)c2)[C@@H](OC(=O)c2cc(O)c(O)c(O)c2)[C@@H](OC(=O)c2cc(O)c(O)c(O)c2)[C@@H]1OC(=O)c1cc(O)c(O)c(O)c1)c1cc(O)c(O)c(O)c1", "note": "(some centres not stated)", "pKi": 6.42}
{"smiles": "O=C(O[C@@H]1OC2COC(=O)c3cc(O)c(O)c(O)c3-c3c(cc(O)c(O)c3O)C(=O)O[C@@H]([C@H]1O)[C@@H]2O)c1cc(O)c(O)c(O)c1", "pKi": 5.45}
{"smiles": "O=C(COc1ccccc1C(=O)N/N=C\\c1ccc(O)c(O)c1)N/N=C/c1ccc(O)c(O)c1", "pKi": 5.49}
{"smiles": "NS(=O)(=O)c1ccc(CNC(=O)/C=C/c2ccco2)cc1", "pKi": 5.11}
